Assay results as given in US5567692A, “9-[(substituted glycyl) amido)]-6-demethyl-6-deoxytetracyclines” (priority 1995, dated 1996).
In brackets after ≈: the same amount, converted by molar mass. Read-outs that look alike come from different tables or passages of the source.

What was measured:
Klebsiella oxytoca = assay: MIC range, recent clinical and veterinary isolates; format: cell-based; conditions: 18 h, [10] isolates, read-out: MIC Range
Enterococcus faecium = assay: MIC range, recent clinical and veterinary isolates; format: cell-based; conditions: 18 h, [10] isolates, read-out: MIC Range
Proteus mirabilis = assay: MIC range, recent clinical and veterinary isolates; format: cell-based; conditions: 18 h, [26] isolates, read-out: MIC Range
Streptococcus pneumoniae = assay: MIC range, recent clinical and veterinary isolates; format: cell-based; conditions: 18 h, [10] isolates, read-out: MIC Range
S. marcescens FPOR 8733 = assay: MIC, agar dilution; format: cell-based; conditions: Serratia marcescens, FPOR8733, 18 h
[1] = system: Bacteroides fragilis group; assay: MIC range, recent clinical and veterinary isolates; format: cell-based; conditions: 18 h; Bacteroides fragilis group, [10] isolates; read-out: MIC Range
Bacteroides fragilis = assay: MIC range, recent clinical and veterinary isolates; format: cell-based; conditions: [11] isolates
Streptococcus pyogenes = assay: MIC range, recent clinical and veterinary isolates; format: cell-based; conditions: 18 h, [10] isolates, read-out: MIC Range
Citrobacter diversus = assay: MIC range, recent clinical and veterinary isolates; format: cell-based; conditions: Citrobacter koseri, 18 h; Citrobacter diversus, [10] isolates; read-out: MIC Range
Pseudomonas aeruginosa = assay: MIC range, recent clinical and veterinary isolates; format: cell-based; conditions: 18 h, [10] isolates, read-out: MIC Range
Enterobacter aerogenes = assay: MIC range, recent clinical and veterinary isolates; format: cell-based; conditions: Klebsiella aerogenes, 18 h; Enterobacter aerogenes, [10] isolates; read-out: MIC Range
[2] = system: Bordetella bronchiseptica (Veterinary); assay: MIC range, recent clinical and veterinary isolates; format: cell-based; conditions: 18 h; Bordetella bronchiseptica (Veterinary), [10] isolates; read-out: MIC Range
Haemophilus influenzae = assay: MIC range, recent clinical and veterinary isolates; format: cell-based; conditions: 18 h, [15] isolates
E. coli J3272 Tet sens = assay: MIC, agar dilution; format: cell-based; conditions: Escherichia coli, J3272TETSENS, 18 h
Neisseria gonorrhoeae = assay: MIC range, recent clinical and veterinary isolates; format: cell-based; conditions: 18 h, [14] isolates
Clostridium difficile = assay: MIC range, recent clinical and veterinary isolates; format: cell-based; conditions: Clostridium difficile, [12] isolates
Salmonella spp. = assay: MIC range, recent clinical and veterinary isolates; format: cell-based; conditions: 18 h, [11] isolates
E. faecalis ATCC 29212 = assay: MIC, agar dilution; format: cell-based; conditions: Enterococcus faecalis, ATCC29212, 18 h
Moraxella catarrhalis = assay: MIC range, recent clinical and veterinary isolates; format: cell-based; conditions: 18 h, [18] isolates, read-out: MIC Range
Proteus vulgaris = assay: MIC range, recent clinical and veterinary isolates; format: cell-based; conditions: 18 h, read-out: MIC Range
[3] = system: Staphylococcus Coagulase-negative, (methicillin-susceptible); assay: MIC range, recent clinical and veterinary isolates; format: cell-based; conditions: 18 h, [14] isolates
[4] = system: Escherichia coli (Veterinary); assay: MIC range, recent clinical and veterinary isolates; format: cell-based; conditions: 18 h, [15] isolates
E. coli J3272 Tet C = assay: microbe, parasite or virus in culture; format: cell-based; conditions: Escherichia coli, J3272TETC, 18 h
Escherichia coli = assay: MIC range, recent clinical and veterinary isolates; format: cell-based; conditions: 18 h, [30] isolates, read-out: MIC Range
Klebsiella pneumoniae = assay: MIC range, recent clinical and veterinary isolates; format: cell-based; conditions: 18 h, [10] isolates
Listeria monocytogenes = assay: MIC range, recent clinical and veterinary isolates; format: cell-based; conditions: 18 h, [8] isolates
[5] = system: Staphylococcus Coagulase-negative, (methicillin-resistant); assay: MIC range, recent clinical and veterinary isolates; format: cell-based; conditions: 18 h, [16] isolates
Enterococcus 12201 = assay: MIC, agar dilution; format: cell-based; conditions: Enterococcus, 12201, 18 h, Enterococcus 12201; read-out: MIC
E. coli UBMS 90-5 = assay: microbe, parasite or virus in culture; format: cell-based; conditions: Escherichia coli, UBMS905, 18 h, E. coli UBMS 90-5; read-out: MIC
Serratia marcescens = assay: MIC range, recent clinical and veterinary isolates; format: cell-based; conditions: 18 h, read-out: MIC Range
Anaerobic Gram(+)Cocci = assay: MIC range, recent clinical and veterinary isolates; format: cell-based; conditions: 18 h, read-out: MIC Range
[6] = system: Ps. aeruginosa ATCC 27853; assay: MIC, agar dilution; format: cell-based; conditions: Pseudomonas aeruginosa, ATCC27853, 18 h
Enterobacter cloacae = assay: MIC range, recent clinical and veterinary isolates; format: cell-based; conditions: 18 h, [10] isolates, read-out: MIC Range
Enterococcus faecalis = assay: MIC range, recent clinical and veterinary isolates; format: cell-based; conditions: 18 h, [10] isolates, read-out: MIC Range
Xanthamonas maltophilia = assay: MIC range, recent clinical and veterinary isolates; format: cell-based; conditions: 18 h; Xanthamonas maltophilia, [10] isolates; read-out: MIC Range
[7] = system: Pasturella multocida (Veterinary); assay: MIC range, recent clinical and veterinary isolates; format: cell-based; conditions: 18 h, [17] isolates
Morganella morganii = assay: MIC range, recent clinical and veterinary isolates; format: cell-based; conditions: 18 h, [16] isolates
[8] = system: Escherichia coli UBMS 90-4 (Tet M); assay: Acute lethal infection in mice, E. coli UBMS 90-4; conditions: in Mus musculus, iv, 168 h
[9] = system: Enterococcus spp, (Vancomycin-resistant); assay: MIC range, recent clinical and veterinary isolates; format: cell-based; conditions: 18 h, [8] isolates
Bacteroides spp. = assay: MIC range, recent clinical and veterinary isolates; format: cell-based; conditions: 18 h; Bacteroides spp., [9] isolates; read-out: MIC Range
[10] = system: Staphylococcus aureus, (methicillin-susceptible); assay: MIC range, recent clinical and veterinary isolates; format: cell-based; conditions: 18 h; Staphylococcus aureus (methicillin-susceptible), [15] isolates; read-out: MIC Range
Streptococcus agalactiae = assay: MIC range, recent clinical and veterinary isolates; format: cell-based; conditions: 18 h, [10] isolates, read-out: MIC Range
Citrobacter freundii = assay: MIC range, recent clinical and veterinary isolates; format: cell-based; conditions: [10] isolates
Shigella spp. = assay: MIC range, recent clinical and veterinary isolates; format: cell-based; conditions: 18 h, [14] isolates
[11] = system: Staphylococcus aureus strain Smith (tetracycline sensitive); assay: Acute lethal infection in mice, S. aureus Smith; format: in vivo; conditions: Staphylococcus aureus, 168 h, mice, S. aureus Smith (Sens), 7 day survival, read-out: ED50

CN(C)c1ccc(O)c2c1C[C@H]1C[C@H]3[C@H](N(C)C)C(O)=C(C(N)=O)C(=O)[C@@]3(O)C(O)=C1C2=O [U, Minocycline, reference compound]
MIC (Klebsiella oxytoca): 0.5 to 4 µg/mL (≈ 1.09 to 8.74 µM) | MIC (Enterococcus faecium): 0.03 to 16 µg/mL (≈ 0.0656 to 35 µM) | MIC (Proteus mirabilis): 1 to 32 µg/mL (≈ 2.19 to 69.9 µM) | MIC (Streptococcus pneumoniae): 0.06 to 0.5 µg/mL (≈ 0.131 to 1.09 µM) | MIC (S. marcescens FPOR 8733): 4 µg/mL (≈ 8.74 µM) | MIC [1]: 0.008 to 4 µg/mL (≈ 0.0175 to 8.74 µM) | MIC Range (Bacteroides fragilis): <0.008 to 16 µg/mL | MIC (Streptococcus pyogenes): 0.03 to 2 µg/mL (≈ 0.0656 to 4.37 µM) | MIC (Citrobacter diversus): 0.25 to 4 µg/mL (≈ 0.546 to 8.74 µM) | MIC (Pseudomonas aeruginosa): 1 to 16 µg/mL (≈ 2.19 to 35 µM) | MIC (Enterobacter aerogenes): 0.5 to 1 µg/mL (≈ 1.09 to 2.19 µM) | MIC [2]: 0.06 to 0.12 µg/mL (≈ 0.131 to 0.262 µM) | MIC (Haemophilus influenzae): 0.5 to 2 µg/mL (≈ 1.09 to 4.37 µM) | MIC (E. coli J3272 Tet sens): 1 µg/mL (≈ 2.19 µM) | MIC (Neisseria gonorrhoeae): 0.5 to 64 µg/mL (≈ 1.09 to 140 µM) | MIC Range (Clostridium difficile): 0.015 to 16 µg/mL | MIC (Salmonella spp.): 0.5 to 16 µg/mL (≈ 1.09 to 35 µM) | MIC (E. faecalis ATCC 29212): 2 µg/mL (≈ 4.37 µM) | MIC (Moraxella catarrhalis): 0.03 to 0.12 µg/mL (≈ 0.0656 to 0.262 µM) | MIC (Proteus vulgaris): 0.5 to 16 µg/mL (≈ 1.09 to 35 µM) | MIC [3]: 0.015 to 0.25 µg/mL (≈ 0.0328 to 0.546 µM) | MIC [4]: 1 to 16 µg/mL (≈ 2.19 to 35 µM) | MIC (E. coli J3272 Tet C): 1 µg/mL (≈ 2.19 µM) | MIC (Escherichia coli): 0.25 to 32 µg/mL (≈ 0.546 to 69.9 µM) | MIC (Klebsiella pneumoniae): 0.5 to 8 µg/mL (≈ 1.09 to 17.5 µM) | MIC (Listeria monocytogenes): 0.015 to 0.03 µg/mL (≈ 0.0328 to 0.0656 µM) | MIC [5]: 0.03 to 1 µg/mL (≈ 0.0656 to 2.19 µM) | MIC (Enterococcus 12201): 8 µg/mL (≈ 17.5 µM) | MIC (E. coli UBMS 90-5): 1 µg/mL (≈ 2.19 µM) | MIC (Serratia marcescens): 1 to 8 µg/mL (≈ 2.19 to 17.5 µM) | MIC (Anaerobic Gram(+)Cocci): 0.05 to 8 µg/mL (≈ 0.109 to 17.5 µM) | MIC [6]: 8 µg/mL (≈ 17.5 µM) | MIC (Enterobacter cloacae): 0.25 to 4 µg/mL (≈ 0.546 to 8.74 µM) | MIC (Enterococcus faecalis): 0.03 to 16 µg/mL (≈ 0.0656 to 35 µM) | MIC (Xanthamonas maltophilia): 0.12 to 1 µg/mL (≈ 0.262 to 2.19 µM) | MIC [7]: 0.015 to 4 µg/mL (≈ 0.0328 to 8.74 µM) | MIC (Morganella morganii): 0.25 to 32 µg/mL (≈ 0.546 to 69.9 µM) | ED50 [8]: > 32 mg/kg | MIC [9]: 0.03 to 16 µg/mL (≈ 0.0656 to 35 µM) | MIC (Bacteroides spp.): 0.03 to 16 µg/mL (≈ 0.0656 to 35 µM) | MIC [10]: 0.03 to 0.12 µg/mL (≈ 0.0656 to 0.262 µM) | MIC (Streptococcus agalactiae): 0.12 to 16 µg/mL (≈ 0.262 to 35 µM) | MIC Range (Citrobacter freundii): 0.03 to 32 µg/mL | MIC (Shigella spp.): 0.25 to 8 µg/mL (≈ 0.546 to 17.5 µM) | ED50 ([11]; iv, Intraveneous): 0.37 mg/kg | ED50 ([11]; po, Oral): 0.74 mg/kg
